Assay [1] concerns the target Tropomyosin receptor kinase A (TRKA, NTRK1) (Homo sapiens (Human), UniProt P04629). The assay can be described thus: TRKA (NTRK1) enzyme Z'-LYTE assay. The assay is classed as biochemical. As to conditions: arithmetic mean of count n; test compound 1 uM, ATP 1 mM. As to the method:
Tropomyosin Receptor Kinase a (TRKA) Activity, % Inhibition
TRKA, also known as neurotrophic tyrosine kinase receptor type 1 (NTKR1) activity was determined by measuring the effect of a test compound on the activity against the NTRK1 enzyme using the ThermoFisher Z'-LYTE Assay fluorescence-based coupled enzyme format (www.thermofisher.com/selectscreen). […] The resulting effect value for the tested compound was compared to the assay controls to determine the % inhibition (%).

The test system of assay [2] is IL-2 in activated CD4+ human T-cells. The assay can be described thus: IL-2 inhibition in supernatants from activated CD4+ human T-cells (cisbio HTRF). The assay is classed as cell-based. As to conditions: T-cell; geometric mean of count n; CD3/CD28-expanded human CD4+ T cells stimulated with ImmunoCult, 20 to 24 hrs. As to the method:
IL-2-Inhibition Activity, IC50 (uM)
IL-2 inhibition activity in supernatants from activated CD4+ human T-cells was determined by measuring the effect of a test compound on the activity using the cisbio HTRF™ technology.
Human CD4+ T cells were activated with CD3/CD28 for 3 days and expanded for an additional 4-6 days (7 to 9 days total). On day 0, frozen CD4+ T cells were thawed, treated with CD3/CD28 Dynabeads, and incubated at 37° C./5% CO2. On day 3, the beads were removed, and the cells were diluted to 5×10^5 cells/cm^2, placed in G-Rex10 flask, and incubated at 37° C./5% CO2. On day 7 to day 9 the cells were removed from the G-Rex flasks, counted and diluted back to 1×10^6 cells/ml in standard tissue culture flask.
The expanded CD4+ T-cells were centrifuged at 300×g for 10 minutes and resuspended to 0.5 million cells per ml (30,000 cells/well). 60 μl of CD4+ T cells were added per well to a 384 well plate containing 0.1 μL of varying concentrations of test compound in DMSO. The plates were incubated for 15 min at 37° C./5% CO2. 20 μl of diluted ImmunoCult™ ([…] Technologies, 1:12.5 in T cell assay media) were added to all wells of the plate (1:50 final assay concentration). The plates were incubated for an additional 20 to 24 hrs at 37° C./5% CO2. The plates were centrifuged at 300×g for 10 minutes. 16 μL of supernatant was removed and combined with 4 μl of IL-2 HTRF Abs. (cisbio kit). Plates were incubated for 3 hours at RT and read with an EnVision plate reader at 665 nm and 615 nm wavelengths.
On the technique in general: TR-FRET usually uses a lanthanide donor and a delayed reading to cut background.

The inhibition is the relative decrease from the control value, in per cent. As usually defined, the IC50 is the concentration needed to halve the response being measured. A lower IC50 goes with greater potency in that assay.

Sequence of Tropomyosin receptor kinase A (TRKA, NTRK1) (P04629 33-796): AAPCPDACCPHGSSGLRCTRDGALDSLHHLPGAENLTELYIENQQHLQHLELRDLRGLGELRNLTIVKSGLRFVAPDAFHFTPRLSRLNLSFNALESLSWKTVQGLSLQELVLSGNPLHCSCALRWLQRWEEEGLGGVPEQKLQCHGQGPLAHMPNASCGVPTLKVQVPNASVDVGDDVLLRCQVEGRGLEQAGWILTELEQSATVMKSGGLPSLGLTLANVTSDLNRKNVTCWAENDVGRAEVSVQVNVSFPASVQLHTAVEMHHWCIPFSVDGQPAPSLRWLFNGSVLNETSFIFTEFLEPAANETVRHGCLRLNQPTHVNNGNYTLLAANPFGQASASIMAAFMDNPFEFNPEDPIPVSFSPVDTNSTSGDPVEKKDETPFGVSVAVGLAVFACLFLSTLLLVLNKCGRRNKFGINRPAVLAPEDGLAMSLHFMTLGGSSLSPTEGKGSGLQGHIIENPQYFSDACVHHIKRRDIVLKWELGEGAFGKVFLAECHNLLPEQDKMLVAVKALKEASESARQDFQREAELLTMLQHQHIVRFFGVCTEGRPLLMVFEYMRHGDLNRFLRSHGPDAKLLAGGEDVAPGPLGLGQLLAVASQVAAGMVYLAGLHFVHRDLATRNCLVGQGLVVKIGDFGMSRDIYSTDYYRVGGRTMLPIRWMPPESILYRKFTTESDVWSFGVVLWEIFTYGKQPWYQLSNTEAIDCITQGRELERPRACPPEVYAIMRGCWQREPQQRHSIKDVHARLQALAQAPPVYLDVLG

Regarding `CCN(C(=O)[C@H](C)N1CCOCC1)c1cc2nc(-c3n[nH]c4c3C[C@@H]3C[C@]3(C)C4)[nH]c2cc1C` [Example 6, (S)—N-ethyl-N-(6-methyl-2-((4aS,5aR)-5a-methyl-1,4,4a,5,5a,6-hexahydrocyclopropa[f]indazol-3-yl)-1H-benzo[d]imidazol-5-yl)-2-morpholinopropanamide], the inhibition at 1 µM in assay [1] stood at 102%. The IC50 in assay [2] was 101 nM.
`CN(C(=O)CC1CCOCC1)c1ccc2[nH]c(-c3n[nH]c4c3C[C@@H]3C[C@]3(C)C4)nc2c1` [Example 10, N-methyl-N-(2-((4aS,5aR)-5a-methyl-1,4,4a,5,5a,6-hexahydrocyclopropa[f]indazol-3-yl)-1H-benzo[d]imidazol-5-yl)-2-(tetrahydro-2H-pyran-4-yl)acetamide]: the inhibition at 1 µM in assay [1] came out at 104%. This molecule also had an IC50 in assay [2] of 67 nM.
In the case of `C[C@@H](C(=O)N(C)c1cc(F)c2[nH]c(-c3n[nH]c4c3C[C@@H]3C[C@]3(C)C4)nc2c1)C1CCOCC1` [Example 12, (R)—N-(7-fluoro-2-((4aS,5aR)-5a-methyl-1,4,4a,5,5a,6-hexahydrocyclopropa[f]indazol-3-yl)-1H-benzo[d]imidazol-5-yl)-N-methyl-2-(tetrahydro-2H-pyran-4-yl)propanamide], in assay [1], the inhibition at 1 µM was found to be 94%. Also, inhibition in assay [2] was half-maximal at 25 nM (IC50).
The matching figures for `C[C@@H](C(=O)N(C)c1ccc2[nH]c(-c3n[nH]c4c3C[C@@H]3C(F)(F)[C@]3(C)C4)nc2c1)N1CCOCC1` [Example 13, (S)—N-(2-((4aS,5aR)-5,5-difluoro-5a-methyl-1,4,4a,5,5a,6-hexahydrocyclopropa[f]indazol-3-yl)-1H-benzo[d]imidazol-5-yl)-N-methyl-2-morpholinopropanamide]: 99% and 3 nM.
The matching figures for `C[C@@H](C(=O)N(C)c1ccc2[nH]c(-c3n[nH]c4c3C[C@@H]3C[C@]3(C)C4)nc2c1)N1CCOCC1` [Example 14, (S)—N-methyl-N-(2-((4aS,5aR)-5a-methyl-1,4,4a,5,5a,6-hexahydrocyclopropa[f]indazol-3-yl)-1H-benzo[d]imidazol-5-yl)-2-morpholinopropanamide]: 92% and 42 nM.
With `C[C@@H](C(=O)N(C)c1cc(F)c2[nH]c(-c3n[nH]c4c3C[C@@H]3C[C@]3(C)C4)nc2c1)N1CCOCC1` [Example 15, (S)—N-(7-fluoro-2-((4aS,5aR)-5a-methyl-1,4,4a,5,5a,6-hexahydrocyclopropa[f]indazol-3-yl)-1H-benzo[d]imidazol-5-yl)-N-methyl-2-morpholinopropanamide], the inhibition at 1 µM in assay [1] stood at 107%. In addition, the IC50 in assay [2] was 42 nM.
Turning to `CCN(C(=O)[C@H](C)N1CCOCC1)c1cc(F)c2[nH]c(-c3n[nH]c4c3C[C@@H]3C[C@]3(C)C4)nc2c1` [Example 16, (S)—N-ethyl-N-(7-fluoro-2-((4aS,5aR)-5a-methyl-1,4,4a,5,5a,6-hexahydrocyclopropa[f]indazol-3-yl)-1H-benzo[d]imidazol-5-yl)-2-morpholinopropanamide], the inhibition at 1 µM in assay [1] turned out to be 116%. Further, 65 nM corresponded to half-maximal inhibition in assay [2] (IC50).
Regarding `COc1cc2[nH]c(-c3n[nH]c4c3C[C@@H]3C[C@]3(C)C4)nc2cc1N(C)C(=O)[C@H](C)N1CCOCC1` [Example 19, (S)—N-(6-methoxy-2-((4aS,5aR)-5a-methyl-1,4,4a,5,5a,6-hexahydrocyclopropa[f]indazol-3-yl)-1H-benzo[d]imidazol-5-yl)-N-methyl-2-morpholinopropanamide], the inhibition at 1 µM in assay [1] is 98%. For the same molecule, the midpoint of inhibition in assay [2], the IC50, lay at 57 nM.
For `C[C@@H](C(=O)N(C)c1cc2nc(-c3n[nH]c4c3C[C@@H]3C[C@]3(C)C4)[nH]c2cc1Br)N1CCOCC1` [Example 20, (S)—N-(6-bromo-2-((4aS,5aR)-5a-methyl-1,4,4a,5,5a,6-hexahydrocyclopropa[f]indazol-3-yl)-1H-benzo[d]imidazol-5-yl)-N-methyl-2-morpholinopropanamide], the inhibition at 1 µM in assay [1] turned out to be 98%. The molecule further returned an IC50 in assay [2] of 53 nM.
As for `C[C@@H](C(=O)N(C)c1cc2nc(-c3n[nH]c4c3C[C@@H]3C[C@]3(C)C4)[nH]c2cc1C#N)N1CCOCC1` [Example 21, (S)—N-(6-cyano-2-((4aS,5aR)-5a-methyl-1,4,4a,5,5a,6-hexahydrocyclopropa[f]indazol-3-yl)-1H-benzo[d]imidazol-5-yl)-N-methyl-2-morpholinopropanamide], the inhibition at 1 µM in assay [1] turned out to be 91%. This molecule yielded an IC50 in assay [2] of 98 nM.
The matching figures for `C[C@@H](C(=O)N(C)c1cc2nc(-c3n[nH]c4c3C[C@@H]3C[C@]3(C)C4)[nH]c2c(F)c1F)N1CCOCC1` [Example 24, (S)—N-(6,7-difluoro-2-((4aS,5aR)-5a-methyl-1,4,4a,5,5a,6-hexahydrocyclopropa[f]indazol-3-yl)-1H-benzo[d]imidazol-5-yl)-N-methyl-2-morpholinopropanamide]: 105% and 106 nM.
In the same order, the values of `CCN(C(=O)[C@H](C)N1CCOCC1)c1cc2nc(-c3n[nH]c4c3C[C@@H]3C[C@]3(C)C4)[nH]c2c(F)c1F` [Example 25, (S)—N-(6,7-difluoro-2-((4aS,5aR)-5a-methyl-1,4,4a,5,5a,6-hexahydrocyclopropa[f]indazol-3-yl)-1H-benzo[d]imidazol-5-yl)-N-ethyl-2-morpholinopropanamide] are 101% and 101 nM.
The matching figures for `Cc1cc2[nH]c(-c3n[nH]c4c3C[C@@H]3C[C@]3(C)C4)nc2cc1N(C)C(=O)CN1CCO[C@H](CO)C1` [Example 26, 2-((S)-2-(hydroxymethyl)morpholino)-N-methyl-N-(6-methyl-2-((4aS,5aR)-5a-methyl-1,4,4a,5,5a,6-hexahydrocyclopropa[f]indazol-3-yl)-1H-benzo[d]imidazol-5-yl)acetamide]: 99% and 212 nM.
In the case of `Cc1cc2[nH]c(-c3n[nH]c4c3C[C@@H]3C[C@]3(C)C4)nc2cc1N(C)C(=O)CN1CCO[C@@H](C)C1` [Example 31, N-Methyl-N-(6-methyl-2-((4aS,5aR)-5a-methyl-1,4,4a,5,5a,6-hexahydrocyclopropa[f]indazol-3-yl)-1H-benzo[d]imidazol-5-yl)-2-((S)-2-methylmorpholino)acetamide], the inhibition at 1 µM in assay [1] was determined as 99%. The molecule further displayed an IC50 in assay [2] of 75 nM.
With `Cc1cc2[nH]c(-c3n[nH]c4c3C[C@@H]3C[C@]3(C)C4)nc2cc1N(C)C(=O)CN1C[C@@H](C)O[C@H](C)C1` [Example 32, 2-((2R,6R)-2,6-Dimethylmorpholino)-N-methyl-N-(6-methyl-2-((4aS,5aR)-5a-methyl-1,4,4a,5,5a,6-hexahydrocyclopropa[f]indazol-3-yl)-1H-benzo[d]imidazol-5-yl)acetamide], the inhibition at 1 µM in assay [1] worked out at 99%. The IC50 in assay [2] came out at 83 nM.
On to `Cc1cc2[nH]c(-c3n[nH]c4c3C[C@@H]3C[C@]3(C)C4)nc2cc1N(C)C(=O)CN1CCOCC1` [Example 34, N-Methyl-N-(6-methyl-2-((4aS,5aR)-5a-methyl-1,4,4a,5,5a,6-hexahydrocyclopropa[f]indazol-3-yl)-1H-benzo[d]imidazol-5-yl)-2-morpholinoacetamide], for which the inhibition at 1 µM in assay [1] came out at 98%. The IC50 in assay [2] amounted to 103 nM.

These data come from patent US11661419B2, “Benzimidazole derivative compounds and uses thereof” (Pfizer Inc., priority 2019, dated 2023).
